Measured values from patent US20120040897A1, “NOVEL DERIVATIVES OF ACYL CYANOPYRROLIDINES” (Sun Pharma Advanced Research Company Ltd., priority 2008, published 2012).

Tests used:
Format in all cases: biochemical
DPP IV = molecular target: T1, DPP IV (Rattus norvegicus, UniProt P14740); experiment: Invitro DPP4 inhibition assay in rat plasma; details: substrate Gly-Pro-AMC
T1 construct: from tissue; host or cells: rat plasma
Method: The assay system comprises of […] of rat plasma, 20 mM MgCl2 test compound, 50 uM substrate Gly-Pro-AMC & buffer (25 mM HEPES, 140 mM NaCl, 1% BSA, pH 7.8) in a total reaction volume of 100 μl. The test compound was preincubated with plasma and MgCl2 for 10 minutes at 37° C. followed by further incubation of 20 minutes after addition of substrate. The experiment was repeated using vehicle as control. The AMC (7-Amino-4-Methylcoumarin) liberated in the samples was quantified in a Multilable counter at excitation wavelength 355 nm & emission wavelength 462 nm from a standard AMC plot. The DPP4 activity in each sample was represented as pmoles of AMC released/mg/min. Plasma protein was estimated by Lowry's method.

DPP8 = DPP8 (Homo sapiens, UniProt Q6V1X1); experiment: Percent inhibition of DPP8 activity; details: at 10000 nM concentration
Chain of DPP8 (Q6V1X1 whole entry, species assumed): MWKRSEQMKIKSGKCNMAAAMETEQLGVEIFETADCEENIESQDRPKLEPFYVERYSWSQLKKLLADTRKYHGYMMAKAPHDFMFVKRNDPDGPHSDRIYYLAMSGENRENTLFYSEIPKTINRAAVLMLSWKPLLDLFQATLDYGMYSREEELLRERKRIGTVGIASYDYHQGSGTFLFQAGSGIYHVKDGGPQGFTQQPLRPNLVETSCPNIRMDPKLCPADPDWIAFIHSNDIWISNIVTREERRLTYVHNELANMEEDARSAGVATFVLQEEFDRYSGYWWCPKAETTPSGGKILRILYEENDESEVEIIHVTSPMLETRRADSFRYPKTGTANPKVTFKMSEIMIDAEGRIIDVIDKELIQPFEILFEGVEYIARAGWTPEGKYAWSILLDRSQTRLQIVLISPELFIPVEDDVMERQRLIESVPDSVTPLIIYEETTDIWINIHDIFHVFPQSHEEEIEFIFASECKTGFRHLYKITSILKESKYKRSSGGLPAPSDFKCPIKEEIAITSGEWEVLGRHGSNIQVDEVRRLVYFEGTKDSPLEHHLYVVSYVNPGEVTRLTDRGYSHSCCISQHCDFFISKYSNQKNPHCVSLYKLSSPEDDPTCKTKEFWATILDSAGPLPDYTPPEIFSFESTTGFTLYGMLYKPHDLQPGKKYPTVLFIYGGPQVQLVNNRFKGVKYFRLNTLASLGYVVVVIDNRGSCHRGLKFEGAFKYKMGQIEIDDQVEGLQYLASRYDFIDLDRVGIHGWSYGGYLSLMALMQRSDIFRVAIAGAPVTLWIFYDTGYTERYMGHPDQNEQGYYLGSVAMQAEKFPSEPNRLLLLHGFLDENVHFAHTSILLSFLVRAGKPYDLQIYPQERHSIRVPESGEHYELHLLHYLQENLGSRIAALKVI
Text: (§1) The following Table 39 gives percent inhibition DPP7, DPP8 & DPP9 activity, as determined for exemplary compounds of the invention

DPP7 = DPP7 (Homo sapiens, UniProt Q9UHL4); experiment: Percent inhibition of DPP7 activity; details: at 10000 nM concentration
Text: as §1

DPP9 = DPP9 (Homo sapiens, UniProt Q86TI2); experiment: Percent inhibition of DPP9 activity; details: at 10000 nM concentration
Chain of DPP9 (Q86TI2 whole entry, species assumed): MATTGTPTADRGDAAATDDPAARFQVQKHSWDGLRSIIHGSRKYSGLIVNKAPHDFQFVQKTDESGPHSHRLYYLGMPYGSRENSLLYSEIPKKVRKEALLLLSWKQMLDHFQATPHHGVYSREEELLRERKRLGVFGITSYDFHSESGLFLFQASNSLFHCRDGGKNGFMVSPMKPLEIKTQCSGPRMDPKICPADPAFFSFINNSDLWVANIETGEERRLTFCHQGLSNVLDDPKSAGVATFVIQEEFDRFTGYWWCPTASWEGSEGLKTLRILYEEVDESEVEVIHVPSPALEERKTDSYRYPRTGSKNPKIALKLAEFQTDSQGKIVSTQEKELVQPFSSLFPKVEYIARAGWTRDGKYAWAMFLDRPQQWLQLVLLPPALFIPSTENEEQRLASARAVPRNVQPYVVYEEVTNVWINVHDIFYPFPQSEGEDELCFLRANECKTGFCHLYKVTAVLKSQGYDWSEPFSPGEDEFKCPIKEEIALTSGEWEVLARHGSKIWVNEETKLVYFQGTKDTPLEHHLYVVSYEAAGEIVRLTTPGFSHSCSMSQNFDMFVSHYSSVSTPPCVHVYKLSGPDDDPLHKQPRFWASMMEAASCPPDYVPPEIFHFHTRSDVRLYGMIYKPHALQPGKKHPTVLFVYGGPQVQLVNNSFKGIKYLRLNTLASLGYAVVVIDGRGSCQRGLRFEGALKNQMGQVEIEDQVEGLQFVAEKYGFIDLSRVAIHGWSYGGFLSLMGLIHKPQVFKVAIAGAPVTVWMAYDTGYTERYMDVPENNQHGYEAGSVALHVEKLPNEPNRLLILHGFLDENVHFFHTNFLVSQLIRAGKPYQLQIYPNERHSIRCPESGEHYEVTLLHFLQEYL
Text: as §1

T1 sequence (P14740 37-767 limits assumed): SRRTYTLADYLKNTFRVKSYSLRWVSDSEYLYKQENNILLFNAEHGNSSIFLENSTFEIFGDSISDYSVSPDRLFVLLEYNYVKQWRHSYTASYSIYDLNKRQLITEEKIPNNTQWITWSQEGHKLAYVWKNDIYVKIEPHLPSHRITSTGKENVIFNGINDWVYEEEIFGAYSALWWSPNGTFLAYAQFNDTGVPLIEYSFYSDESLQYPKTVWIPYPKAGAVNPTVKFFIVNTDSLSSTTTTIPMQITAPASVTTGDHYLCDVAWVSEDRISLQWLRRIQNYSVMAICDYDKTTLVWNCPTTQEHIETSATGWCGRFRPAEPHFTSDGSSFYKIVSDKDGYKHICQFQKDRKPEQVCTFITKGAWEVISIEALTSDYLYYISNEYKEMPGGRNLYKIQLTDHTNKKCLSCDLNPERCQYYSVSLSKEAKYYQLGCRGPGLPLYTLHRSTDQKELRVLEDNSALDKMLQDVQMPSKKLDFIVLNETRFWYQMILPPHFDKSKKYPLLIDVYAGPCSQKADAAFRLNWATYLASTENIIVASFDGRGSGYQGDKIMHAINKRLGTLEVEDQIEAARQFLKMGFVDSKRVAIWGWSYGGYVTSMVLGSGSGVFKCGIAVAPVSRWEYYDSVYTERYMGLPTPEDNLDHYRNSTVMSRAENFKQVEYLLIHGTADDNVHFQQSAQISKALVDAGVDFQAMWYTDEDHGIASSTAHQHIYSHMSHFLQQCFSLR

Row | IC50 (DPP IV) | inhibition at 10 µM (DPP8) | inhibition at 10 µM (DPP7) | inhibition at 10 µM (DPP9) | SMILES
1 | 5.98 nM | 18% | 0% | 29% | CC1(C)O[C@@H]2[C@@H](CO[C@@]3(CN4CCC(NCC(=O)N5CCC[C@H]5C#N)CC4)OC(C)(C)O[C@@H]23)O1 [Example 1, 2,3:4,5-di-O-isopropylidene-1-[piperidin-(4-aminoacetylpyrrolidine-2-(S)-carbonitrile}-1-yl]-1-deoxy-β-D-fructopyranose]
2 | 18.2 nM | – | – | – | CC1(NCC(=O)N2CCC[C@H]2C#N)CCN(S(=O)(=O)OC[C@H]2O[C@@H]3OC(C)(C)O[C@@H]3[C@H]3OC(C)(C)O[C@H]32)CC1 [Example 112, 1,2:3,4-di-O-isopropylidene-6-[piperidin-{(4-aminoacetylpyrrolidine-2-(S)-carbonitrile)-4-methyl-1-sulfonyl}-1-yl]-D-galactopyranose]
3 | 14.3 nM | – | – | – | CCOCCO[C@@H]1O[C@H](CN2CCC(C)(NCC(=O)N3CCC[C@H]3C#N)CC2)[C@H]2OC(C)(C)O[C@@H]12 [Example 123, 2,3-O-Isopropylidene-β-1-O-ethoxyethyl-5-[piperidin-{4-aminoacetylpyrrolidine-2-(S)-carbonitrile}(4-methyl)-1-yl]-5-deoxy-D-ribofuranose]
4 | 22.3 nM | – | – | – | CC1(NCC(=O)N2CCC[C@H]2C#N)CCN(C[C@H]2O[C@@H]3OC(C)(C)O[C@@H]3[C@H]2O)CC1 [Example 135, 1,2-O-Isopropylidene-5-[4-methylpiperidin-{4-aminoacetylpyrrolidine-2-(S)-carbonitrile}-1-yl]-5-deoxy-α-D-xylofuranose]
